Drawing on patent US9096565B2, “Inhibitors of histone deacetylase” (MethylGene Inc., priority 2007, dated 2015), this text covers IC50 for 33 compounds.

This test addresses one or more of HDAC-4, HDAC-5, HDAC-6, HDAC-7, HDAC-8, HDAC-9, HDAC-10 and HDAC-11. The experiment in a line: Inhibition of histone deacetylase enzymatic activity (summary statement over isoforms). Format: biochemical. Particulars: Table 3, selected examples; HDAC isoform not given. On the procedure: The following protocol is used to assay the compounds of the invention.
The mixture is pre-incubated for 5 minutes at room temperature. The reaction is started by bringing the temperature to 37° C. and adding 15 μL substrate. Total reaction volume is 50 μL.
A 30 mM stock of Boc-Lys(trifluoroacetyl)-AMC substrate is prepared in DMSO. […] Reaction is started by adding 18 μL Boc-Lys(trifluoroacetyl)-AMC substrate and incubating at 37° C. for 20-30 minutes. The reaction is stopped by adding 50 μL trypsin (1 mg/mL) and a known HDAC inhibitor.
Take `O=C(Nc1cccc(C(C(=O)NO)c2ccccc2)c1)c1ccc2c(c1)OCO2` (stereo not drawn) [Compound 2-76, N-(3-(2-(hydroxyamino)-2-oxo-1-phenylethyl)phenyl)benzo[d][1,3]dioxole-5-carboxamide]: the IC50 (usually the concentration that gives 50% inhibition) was less than 1000 nM.
The value for `Cc1cc(C)cc(COc2ccc(C(C(=O)NO)c3ccccc3)cc2)c1` (stereo not drawn) [Compound 3-62, 2-(4-(3,5-dimethylbenzyloxy)phenyl)-N-hydroxy-2-phenylacetamide] was less than 1000 nM; that for `O=C(NO)C(c1ccc(N2CCOCC2)cc1)c1cccs1` (stereo not drawn) [Compound 5-104, N-hydroxy-2-(4-morpholinophenyl)-2-(thiophen-2-yl)acetamide] was less than 1000 nM; that for `O=C(NO)C(c1ccccc1)N1CCC(c2nc3ccccc3o2)CC1` (stereo not drawn) [Compound 5-35, 2-(4-(benzo[d]oxazol-2-yl)piperidin-1-yl)-N-hydroxy-2-phenylacetamide] was less than 1000 nM.
Compound `O=C(CCC1CCCCC1)Nc1ccc(C(C(=O)NO)c2ccccc2)cc1` (stereo not drawn) [Compound 2-70, 3-cyclohexyl-N-(4-(2-(hydroxyamino)-2-oxo-1-phenylethyl)phenyl)propanamide] had an IC50 of less than 1000 nM.
The value for `O=C(NO)C(c1ccccc1)c1ccc(C#CCN2CCS(=O)(=O)CC2)cc1` (stereo not drawn) [Compound 5-91] was less than 1000 nM.
The value for `CC(=O)ONC(=O)C(c1ccccc1)c1ccc(N2CCOCC2)cc1` (stereo not drawn) [Compound 5-117, N-acetoxy-2-(4-morpholinophenyl)-2-phenylacetamide] was 1000 to 15000 nM; that for `CN(C)C(=O)c1ccc(-c2ccc(C(C(=O)NO)c3ccccc3)cc2)cc1` (stereo not drawn) [Compound 2-116, 4′-(2-(hydroxyamino)-2-oxo-1-phenylethyl)-N,N-dimethylbiphenyl-4-carboxamide] was less than 1000 nM.
As for `O=C(NO)C(c1ccccc1)c1ccc(NCc2ccc(F)cc2)cc1` (stereo not drawn) [Compound 2-51, 2-(4-(4-fluorobenzylamino)phenyl)-N-hydroxy-2-phenylacetamide], the IC50 was less than 1000 nM.
The value for `CCN(Cc1ccccc1)c1ccc(C(C(=O)NO)c2ccccc2)cc1` (stereo not drawn) [Compound 5-44, 2-(4-(benzyl(ethyl)amino)phenyl)-N-hydroxy-2-phenylacetamide] was less than 1000 nM.
The compound `O=C(NO)C(c1ccccc1)c1ccc(N2CCN(c3cccc(C(F)(F)F)c3)CC2)cc1` (stereo not drawn) [Compound 5-67, N-hydroxy-2-phenyl-2-(4-(4-(3-(trifluoromethyl)phenyl)piperazin-1-yl)phenyl)acetamide] yielded an IC50 of less than 1000 nM.
The value for `O=C(NO)C(c1ccc([N+](=O)[O-])cc1)c1ccc([N+](=O)[O-])cc1` [Compound 1-3, N-hydroxy-2,2-bis(4-nitrophenyl)acetamide] was less than 1000 nM; that for `O=C(NO)C(c1ccccc1)n1cc(-c2ccccc2)nn1` (stereo not drawn) [Compound 1-26, N-hydroxy-2-phenyl-2-(4-phenyl-1H-1,2,3-triazol-1-yl)acetamide] was less than 1000 nM; that for `O=C(NO)C(c1ccccc1)c1ccc(OCc2ccccc2Cl)cc1` (stereo not drawn) [Compound 3-65, 2-(4-(2-chlorobenzyloxy)phenyl)-N-hydroxy-2-phenylacetamide] was less than 1000 nM.
The value for `O=C(CCC1CCCCC1)Nc1cccc(C(C(=O)NO)c2ccccc2)c1` (stereo not drawn) [Compound 2-71, 3-cyclohexyl-N-(3-(2-(hydroxyamino)-2-oxo-1-phenylethyl)phenyl)propanamide] was less than 1000 nM; that for `O=C(NO)C(c1ccccc1)c1cccc(NCc2ccncc2)c1` (stereo not drawn) [Compound 2-81, N-hydroxy-2-phenyl-2-(3-(pyridin-4-ylmethylamino)phenyl)acetamide] was less than 1000 nM; that for `CN(C)c1ccc(C(C(=O)NO)c2ccc(-c3ccccc3)cc2)cc1` (stereo not drawn) [Compound 1-40, 2-(biphenyl-4-yl)-2-(4-(dimethylamino)phenyl)-N-hydroxyacetamide] was less than 1000 nM.
The value for `O=C(NO)C(c1ccccc1)N1CCC2(CC1)OCCO2` (stereo not drawn) [Compound 2-41, N-hydroxy-2-phenyl-2-(1,4-dioxa-8-azaspiro[4.5]decan-8-yl)acetamide] was 1000 to 15000 nM.
The compound `N#Cc1ccccc1COc1ccc(C(C(=O)NO)c2ccccc2)cc1` (stereo not drawn) [Compound 3-61, 2-(4-(2-cyanobenzyloxy)phenyl)-N-hydroxy-2-phenylacetamide] displayed a half-inhibitory concentration (IC50) of less than 1000 nM.
`O=C(NO)C(c1ccccc1)c1cccc(-c2ccc(Cl)cc2)c1` (stereo not drawn) [Compound 2-103, 2-(4′-chlorobiphenyl-3-yl)-N-hydroxy-2-phenylacetamide] came in with an IC50 of less than 1000 nM.
`COc1ccc(C(C(=O)NO)c2ccccc2)cc1` (stereo not drawn) [Compound 3-43, N-hydroxy-2-(4-methoxyphenyl)-2-phenylacetamide] showed an IC50 of less than 1000 nM.
With `O=C(NO)C(c1ccccc1)N1CCN(C2=Nc3ccccc3Oc3ccc(Cl)cc32)CC1` (stereo not drawn) [Compound 5-20, (E)-2-(4-(2-chlorodibenzo[b,f][1,4]oxazepin-11-yl)piperazin-1-yl)-N-hydroxy-2-phenylacetamide], the IC50 was less than 1000 nM.
The value for `O=C(NO)C(c1ccccc1)c1ccc(OCc2ccccc2F)cc1` (stereo not drawn) [Compound 3-60, 2-(4-(2-fluorobenzyloxy)phenyl)-N-hydroxy-2-phenylacetamide] was less than 1000 nM; that for `O=C(NO)C(c1ccccc1)N1CCC(N2CCOCC2)CC1` (stereo not drawn) [Compound 2-42, N-hydroxy-2-(4-morpholinopiperidin-1-yl)-2-phenylacetamide] was 1000 to 15000 nM.
The value for `O=C(NO)C(c1ccc(N2CCOCC2)cc1)c1cccc(OC(F)(F)F)c1` (stereo not drawn) [Compound 6-20, N-hydroxy-2-(4-morpholinophenyl)-2-(3-(trifluoromethoxy)phenyl)acetamide] was 1000 to 15000 nM; that for `O=C(NO)C(c1ccccc1)c1ccc(OCCN2CCOCC2)cc1` (stereo not drawn) [Compound 5-40, N-hydroxy-2-(4-(2-morpholinoethoxy)phenyl)-2-phenylacetamide] was less than 1000 nM.
The value for `O=C(NO)C(c1ccccc1)c1ccc(N2CCN(C/C=C/c3ccccc3)CC2)cc1` (stereo not drawn) [Compound 5-85, (E)-2-(4-(4-cinnamylpiperazin-1-yl)phenyl)-N-hydroxy-2-phenylacetamide] was less than 1000 nM; that for `O=C(NO)C(c1ccccc1)c1ccc(NS(=O)(=O)c2ccccc2)cc1` (stereo not drawn) [Compound 2-88, N-hydroxy-2-phenyl-2-(4-(phenylsulfonamido)phenyl)acetamide] was less than 1000 nM; that for `O=C(NO)C(c1ccccc1)c1cccc(NCC2CCCCC2)c1` (stereo not drawn) [Compound 2-83, 2-(3-(cyclohexylmethylamino)phenyl)-N-hydroxy-2-phenylacetamide] was 1000 to 15000 nM.
In the case of `O=C(NO)C(c1ccccc1)c1ccc(N2CCCCC2=O)cc1` (stereo not drawn) [Compound 5-110, N-hydroxy-2-(4-(2-oxopiperidin-1-yl)phenyl)-2-phenylacetamide], the IC50 is less than 1000 nM.
The value for `O=C(NO)C(Sc1ccc(C(F)(F)F)cn1)c1ccccc1` (stereo not drawn) [Compound 2-47, N-hydroxy-2-phenyl-2-(5-(trifluoromethyl)pyridin-2-ylthio)acetamide] was 1000 to 15000 nM; that for `O=C(NO)C(c1ccccc1)c1nnc(Cc2c[nH]c3ccccc23)s1` (stereo not drawn) [Compound 5-3, 2-(5-((1H-indol-3-yl)methyl)-1,3,4-thiadiazol-2-yl)-N-hydroxy-2-phenylacetamide] was less than 1000 nM; that for `O=C(NO)C(c1ccccc1)c1cccc(OCc2cccc(C(F)(F)F)c2)c1` (stereo not drawn) [Compound 3-42, N-hydroxy-2-phenyl-2-(3-(3-(trifluoromethyl)benzyloxy)phenyl)acetamide] was less than 1000 nM.
